Measurements published in patent publication US6617342B1, “Hypoglycemic sulfonyl pyrazolones and pyrazolines” (Eli Lilly and Company, priority 1999, dated 2003).

System: obese-diabetic viable yellow (AvY) mice
Assay: Demonstration of hypoglycemic efficacy: blood glucose after 14 days of compound admixed in diet
Format: in vivo
Details: blood glucose at day 14 as percent of initial (day 0) value, male AvY mice
Experimental: Male obese-diabetic viable yellow (AvY) mice were divided into two groups of 6 each. One group was fed repelletized purina 5008 Chow and the second group was fed repelletized Purina 5008 Chow, admixed with varying doses of the candidate compound. Blood samples were taken before the experiment was initiated and 7 and 14 days after initiation. Body weight and food consumption were monitored. The blood glucose level after 7 or 14 days of treatment was measured and recorded as a percent of the initial value, compared to the untreated control (first) group. The results are presented in the table 1 below; and include the dose of the candidate compound as a weight percent of the amount incorporated into the diet. Also in the table is a representative value for a positive control (a known hypoglycemic agent as disclosed by T. Sohda, K. Mizuno, Y. Momose, H. Ikeda, T. Fujita, and K. Meguro, J. Med. Chem., 1992, 35, 2617) administered in the same way as a candidate compound of the present invention.
BG means blood glucose level; BG0 means blood glucose level at day zero and BG14 means blood glucose level at day 14 accordingly. Takeda “Compound 17” is disclosed by T. Sohda, K. Mizuno, Y. Momose, H. Ikeda, T. Fujita, and K. Meguro, J. Med. Chem., 1992, 35, 2617.

[1] = dose .03 weight percent in diet (Purina 5008 Chow)

Compound	% BG14 (BGO = 100) [1] [%]	also measured
3-(4-(2-Phenyl-4-oxazolyl)ethoxy)phenyl-4-methylsulfonyl-1H-1,2-pyrazoline [Example 3]	–	% BG14 (BGO = 100) (dose .01 weight percent in diet (Purina 5008 Chow)): 72%
O=c1[nH][nH]cc1S(=O)(=O)c1ccc(OCCc2coc(-c3ccccc3)n2)cc1 [Example 1, 4-(4-[2-(2-Phenyl-4-oxazolyl)ethoxy]phenylsulfonyl)-1H,2H-prazolin-3-one]	32	–
O=c1[nH][nH]cc1S(=O)(=O)Cc1ccc(OCCc2coc(-c3ccccc3)n2)cc1 [Example 2, 4-(4-[2-(2-Phenyl-4-oxazolyl)ethoxy]phenylmethylsulfonyl)-1H,2H-prazolin-3-one]	81	–
O=c1ccn(S(=O)(=O)c2ccc3ccccc3c2)[nH]1 [Example 4, 2-Naphthylsulfonyl-pyrazolin-3-one]	–	% BG14 (BGO = 100) (dose .1 weight percent in diet (Purina 5008 Chow)): 94%
